Where two headings read alike, the source gives them in different places.
Key:
PRMT5/MEP50 = PRMT5/MEP50 (Homo sapiens, UniProt O14744); test: MTase-Glo methyl transferase assay, Method A (Histone H4 peptide, 1 µM MTA, 24 h pre-incubation); assay type: biochemical; parameters: made in house; details: read-out: PRMT5 MTase Glo Ki (nM, Meth. A)
Outline: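 Luminescent SAH detection (MTase-Glo) after a 2 h room-temperature methylation of 1 µM biotinylated H4 (1-21) peptide by 10 nM PRMT5/MEP50 with 5 µM SAM, in 50 mM Tris pH 8.0.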

HCT116 MTAP null cells = test: HCT116 proliferation assay, MTAP null cells (CellTiter-Glo, 6 days); assay type: cell-based; details: 144 h, read-out: Protif_ HCT116-MTAP null IC50
Outline: (§1)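 Luminescent viability signal was measured after continuous drug exposure. Before dosing, cells attached overnight (37° C, 5% CO2) in RPMI 1640 + 10% FBS. Dosing used 1:3 steps over 8 or 9 points, starting at 1 or 10 µM, with DMSO-only wells as control.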

HCT116 WT cells = test: HCT116 proliferation assay, WT cells (CellTiter-Glo, 6 days); assay type: cell-based; details: Homo sapiens, HCT-116, 144 h, read-out: Prolif_HCT116-WT IC50
Outline: as §1

Sequence of PRMT5/MEP50 (O14744 whole entry): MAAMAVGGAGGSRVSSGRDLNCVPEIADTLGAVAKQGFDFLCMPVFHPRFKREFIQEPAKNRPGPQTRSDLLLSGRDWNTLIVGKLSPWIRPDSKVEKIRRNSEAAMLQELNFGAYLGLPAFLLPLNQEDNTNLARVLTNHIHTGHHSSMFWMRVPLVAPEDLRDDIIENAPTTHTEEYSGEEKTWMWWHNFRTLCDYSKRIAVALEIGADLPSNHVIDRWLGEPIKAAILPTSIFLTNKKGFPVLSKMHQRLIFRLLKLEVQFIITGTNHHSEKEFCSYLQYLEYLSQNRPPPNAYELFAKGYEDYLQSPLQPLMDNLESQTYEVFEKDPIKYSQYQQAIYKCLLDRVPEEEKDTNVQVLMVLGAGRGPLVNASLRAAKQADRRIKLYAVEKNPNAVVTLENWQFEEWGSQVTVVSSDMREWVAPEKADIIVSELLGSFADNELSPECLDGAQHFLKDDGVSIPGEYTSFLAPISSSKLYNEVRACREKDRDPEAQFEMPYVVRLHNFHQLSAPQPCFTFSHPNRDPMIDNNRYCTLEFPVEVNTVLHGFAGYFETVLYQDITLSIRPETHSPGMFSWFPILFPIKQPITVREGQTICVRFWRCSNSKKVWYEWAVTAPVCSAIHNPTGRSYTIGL
Sequence of PRMT5/MEP50 (Q9BQA1 whole entry partner): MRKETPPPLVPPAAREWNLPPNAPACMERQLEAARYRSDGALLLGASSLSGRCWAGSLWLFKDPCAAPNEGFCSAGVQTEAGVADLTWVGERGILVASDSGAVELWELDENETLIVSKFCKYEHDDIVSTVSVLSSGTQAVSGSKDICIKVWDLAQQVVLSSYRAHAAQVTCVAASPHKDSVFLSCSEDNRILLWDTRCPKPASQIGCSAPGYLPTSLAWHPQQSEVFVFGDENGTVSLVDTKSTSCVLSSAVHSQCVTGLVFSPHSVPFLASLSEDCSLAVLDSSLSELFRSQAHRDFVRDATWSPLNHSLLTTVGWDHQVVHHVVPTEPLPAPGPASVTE

SMILES | Ki (PRMT5/MEP50) [nM] | IC50 (HCT116 MTAP null cells; HCT116-MTAP null) [nM] | IC50 (HCT116 WT cells) [nM] | IC50 (HCT116 MTAP null cells) [nM]
COC(=O)c1ccc(CN(C(=O)c2ccc3nc(N)c(C)cc3c2)[C@H](C)c2ncccc2F)nc1 [Example 403, methyl 6-((((2-amino-3-methyl-6-quinolinyl)carbonyl)((1R)-1-(3-fluoro-2-pyridinyl)ethyl)amino)methyl)-3-pyridinecarboxylate] | 0.55 | 263 | 8880 | 
Cc1cc2cc(C(=O)N(Cc3cnc4ccccc4c3)[C@H](C)c3ncccn3)ccc2nc1N (single isomer, unassigned) [Example 447] | 5.51 | 673 | > 10000 | 
Cc1cc2cc(C(=O)N(Cc3ccc(C4=CCOCC4)cn3)[C@H](C)c3ncccn3)ccc2nc1N [Example 557, (R)-2-amino-N-((5-(3,6-dihydro-2H-pyran-4-yl)pyridin-2-yl)methyl)-3-methyl-N-(1-(pyrimidin-2-yl)ethyl)quinoline-6-carboxamide] | 0.18 | 42 | 1730 | 
COc1ccc(CN(C(=O)c2ccc3nc(N)c(Cl)cc3c2)[C@H](C)c2ncccn2)nn1 [Example 413, 2-amino-3-chloro-N-((6-methoxy-3-pyridazinyl)methyl)-N-((1R)-1-(2-pyrimidinyl)ethyl)-6-quinolinecarboxamide] | 0.65 | 655 | > 10000 | 
Cc1cc2cc(C(=O)N(Cc3ccc(F)cn3)Cc3ccc(C(F)(F)F)cn3)ccc2nc1N [Example 383, 2-amino-N-((5-fluoro-2-pyridinyl)methyl)-3-methyl-N-((5-(trifluoromethyl)-2-pyridinyl)methyl)-6-quinolinecarboxamide] | 2.06 | 434 | 5320 | 
Cc1cc(CN(Cc2ccc(C(F)(F)F)cn2)C(=O)c2cc3cc(C)c(N)nc3cc2F)no1 [Example 316, 2-amino-7-fluoro-3-methyl-N-((5-methyl-1,2-oxazol-3-yl)methyl)-N-((5-(trifluoromethyl)-2-pyridinyl)methyl)-6-quinolinecarboxamide] | 1.03 | 534 | 10400 | 
Cc1cc2cc(C(=O)N(Cc3ccc(N4CC5(COC5)C4)cn3)[C@H](C)c3ncccn3)ccc2nc1N [Example 556, (R)-N-((5-(2-oxa-6-azaspiro[3.3]heptan-6-yl)pyridin-2-yl)methyl)-2-amino-3-methyl-N-(1-(pyrimidin-2-yl)ethyl)quinoline-6-carboxamide] | 4.1 | 342 | 10100 | 
Cc1cc2cc(C(=O)N(Cc3ccc(C(F)(F)F)cc3)Cc3ncccc3F)ccc2nc1N [Example 328, 2-amino-N-((3-fluoro-2-pyridinyl)methyl)-3-methyl-N-(4-(trifluoromethyl)benzyl)-6-quinolinecarboxamide] | 0.41 | 178 | 4640 | 
COc1ccc(CN(C(=O)c2ccc3nc(N)c(Br)cc3c2)[C@H](C)c2ncccn2)nn1 [Example 411, 2-amino-3-bromo-N-((6-methoxy-3-pyridazinyl)methyl)-N-((1R)-1-(2-pyrimidinyl)ethyl)-6-quinolinecarboxamide] | 0.22 | 182 | > 10000 | 
Cc1cc2cc(C(=O)N(Cc3ccc(Br)cn3)CC(C)C)ccc2nc1N [Example 357, 2-amino-N-((5-bromo-2-pyridinyl)methyl)-3-methyl-N-(2-methylpropyl)-6-quinolinecarboxamide] | 4.34 | 385 | 7050 | 
Cc1cc2cc(C(=O)N(Cc3ccc(C(F)(F)F)cn3)[C@@H]3COC[C@H]3O)ccc2nc1N [Example 505, 2-amino-N-((3R,4S)-4-hydroxytetrahydro-3-furanyl)-3-methyl-N-((5-(trifluoromethyl)-2-pyridinyl)methyl)-6-quinolinecarboxamide] | 2.51 | 765 | 10300 | 
[2H]C([2H])([2H])c1cc2cc(C(=O)N(Cc3ccc(C(F)(F)F)cn3)[C@H](C)c3ncccc3F)ccc2nc1N [Example 440, (R)-2-amino-N-(1-(3-fluoropyridin-2-yl)ethyl)-3-(methyl-d3)-N-((5-(trifluoromethyl)pyridin-2-yl)methyl)quinoline-6-carboxamide] | < 0.1 |  | 690 | 38
Cc1cc2cc(C(=O)N(Cc3ccc(Br)nn3)[C@@H]3CCC[C@H]3O)ccc2nc1N [Example 366, 2-amino-N-((6-bromo-3-pyridazinyl)methyl)-N-((1R,2R)-2-hydroxycyclopentyl)-3-methyl-6-quinolinecarboxamide] | 0.18 | 218 | 7010 | 
Cc1cc2cc(C(=O)N(Cc3ccc(C(F)(F)F)cn3)[C@@H]3CCCc4cccnc43)ccc2nc1N [Example 390, 2-amino-3-methyl-N-((8R)-5,6,7,8-tetrahydro-8-quinolinyl)-N-((5-(trifluoromethyl)-2-pyridinyl)methyl)-6-quinolinecarboxamide] | 0.25 | 23 | 460 | 
Cc1cc2cc(C(=O)N(Cc3ccc(C(F)(F)F)cn3)[C@H](C)c3ncccn3)cnc2nc1N (single isomer, unassigned) [Example 486] | 0.42 | 123 | 3830 | 
Cc1cc2cc(C(=O)N(Cc3ccc(C(F)F)cn3)Cc3ncccc3F)ccc2nc1N [Example 326, 2-amino-N-((5-(difluoromethyl)-2-pyridinyl)methyl)-N-((3-fluoro-2-pyridinyl)methyl)-3-methyl-6-quinolinecarboxamide] | 0.16 | 125 | 4320 | 
Cc1cc2cc(C(=O)N(Cc3ncc(C(F)(F)F)s3)[C@H](C)c3ncccn3)ccc2nc1N (single isomer, unassigned) [Example 492] | 0.22 | 175 | 3390 | 
C[C@H](c1ncccn1)N(Cc1ccc(Cl)cn1)C(=O)c1cnc2nc(N)c(Br)cc2c1 [Example 414, 7-amino-6-bromo-N-((5-chloro-2-pyridinyl)methyl)-N-((1R)-1-(2-pyrimidinyl)ethyl)-1,8-naphthyridine-3-carboxamide] | 0.3 | 234 | 5180 | 
Cc1cc2cc(C(=O)N(Cc3ccc(C(F)(F)F)cn3)Cc3ncc(F)cn3)ccc2nc1N [Example 341, 2-amino-N-((5-fluoro-2-pyrimidinyl)methyl)-3-methyl-N-((5-(trifluoromethyl)-2-pyridinyl)methyl)-6-quinolinecarboxamide] | 0.52 | 437 | > 10000 | 

Now from value to molecule, other results behind:

Ki (PRMT5/MEP50) [nM] | IC50 (HCT116 MTAP null cells; HCT116-MTAP null) [nM] | IC50 (HCT116 WT cells) [nM] | SMILES | IC50 (HCT116 MTAP null cells) [nM]
< 0.1 | 49 | 2420 | C[C@H](c1ncccn1)N(Cc1ccc(C(F)(F)F)cn1)C(=O)c1ccc2nc(N)c(Br)cc2c1 [Example 434, 2-amino-3-bromo-N-((1R)-1-(2-pyrimidinyl)ethyl)-N-((5-(trifluoromethyl)-2-pyridinyl)methyl)-6-quinolinecarboxamide] | 
0.02 | 19 | 755 | Cc1cc2cc(C(=O)N(Cc3ccc(C(F)(F)F)nn3)[C@H](C)c3cscn3)ccc2nc1N (single isomer, unassigned) [Example 533] | 
0.08 | 51 | 1570 | Cc1cc2cc(C(=O)N(Cc3ccc(Cl)cn3)[C@H](C)c3ncccc3F)ccc2nc1N [Example 401, 2-amino-N-((5-chloro-2-pyridinyl)methyl)-N-((1R)-1-(3-fluoro-2-pyridinyl)ethyl)-3-methyl-6-quinolinecarboxamide] | 
0.04 | 15 | 526 | Cc1cc2cc(C(=O)N(Cc3ccc(Br)cn3)[C@H](C)c3ncccn3)ccc2nc1N [Example 402] | 
0.03 | 54 | 1040 | Cc1cc2cc(C(=O)N(Cc3ccc(C#N)cn3)[C@H](C)c3ccccc3F)ccc2nc1N [Example 405, 2-amino-N-((5-cyano-2-pyridinyl)methyl)-N-((1R)-1-(2-fluorophenyl)ethyl)-3-methyl-6-quinolinecarboxamide] | 
0.14 | 199 | 5930 | Cc1cc2cc(C(=O)N(Cc3ccc(C(N)=O)cn3)[C@H](C)c3ccccc3F)ccc2nc1N [Example 550, 2-amino-N-((5-carbamoyl-2-pyridinyl)methyl)-N-((1R)-1-(2-fluorophenyl)ethyl)-3-methyl-6-quinolinecarboxamide] | 
0.1 | 88 | 2080 | CC(=O)N1CC=C(c2ccc(CN(C(=O)c3ccc4nc(N)c(C)cc4c3)[C@H](C)c3ncccn3)nc2)CC1 [Example 548, N-((1′-acetyl-1’,2’,3’,6′-tetrahydro[3,4′-bipyridin]-6-yl)methyl)-2-amino-3-methyl-N-((1R)-1-(2-pyrimidinyl)ethyl)-6-quinolinecarboxamide] | 
0.13 | 597 | > 10000 | C[C@H](c1ncccn1)N(Cc1ccc(C#N)cn1)C(=O)c1ccc2nc(N)c(Cl)cc2c1 [Example 408, 2-amino-3-chloro-N-((5-cyano-2-pyridinyl)methyl)-N-((1R)-1-(2-pyrimidinyl)ethyl)-6-quinolinecarboxamide] | 
0.15 | 137 | 4880 | C[C@H](c1ncccc1F)N(Cc1ccc(C(F)(F)F)cn1)C(=O)c1cnc2nc(N)c(Br)cc2c1 [Example 388, 7-amino-6-bromo-N-((1R)-1-(3-fluoro-2-pyridinyl)ethyl)-N-((5-(trifluoromethyl)-2-pyridinyl)methyl)-1,8-naphthyridine-3-carboxamide] | 
